Data taken from ChEMBL document CHEMBL1275463, “Detection of the erythromycin rRNA methylase gene erm(A) in Enterococcus faecalis” (2008).
≈ marks a conversion by molar mass, not a printed value.

Key:
Enterococcus faecalis [1] = test: Antimicrobial activity against Enterococcus faecalis expressing rRNA methylase gene erm(A) obtained from human by broth microdilution method; type: functional
Enterococcus faecalis [2] = test: Antimicrobial activity against Enterococcus faecalis expressing rRNA methylase gene erm(A) obtained from pig manure by broth microdilution method; type: functional

Compound	MIC (Enterococcus faecalis [1]) [µg/mL]	MIC (Enterococcus faecalis [2]) [µg/mL]
CC[C@H]1OC(=O)[C@H](C)[C@@H](O[C@H]2C[C@@](C)(OC)[C@@H](O)[C@H](C)O2)[C@H](C)[C@@H](O[C@@H]2O[C@H](C)C[C@H](N(C)C)[C@H]2O)[C@](C)(O)C[C@@H](C)C(=O)[C@H](C)[C@@H](O)[C@]1(C)O [ERYTHROMYCIN]	1 (≈ 1.36 µM)	> 8
CN(C)[C@@H]1C(O)=C(C(N)=O)C(=O)[C@@]2(O)C(O)=C3C(=O)c4c(O)cccc4[C@@](C)(O)[C@H]3C[C@@H]12 [TETRACYCLINE]	> 4	> 4
